Experimental data reported in ChEMBL document CHEMBL2094260, “Malaria Box Tuberculosis Screening Data”.

Test system: Mycobacterium tuberculosis
Assay: MMV: Screen against Mtb, single point, replicating, at 25uM
Type: functional

Row | SMILES | inhibition at 25 µM
1 | CC(C)(C)c1ccc(C(=O)Nc2c3c(nn2-c2cccc(Cl)c2)CSC3)cc1 | -1.02%
2 | CC(C)(C)c1ccc(C(=O)Nc2nc3ccccc3s2)cc1 | 54%
3 | CCN(CC)CCNc1ccnc2cc(Cl)ccc12 | 4.01%
4 | C=C(C)CCC(C)N1CCC(N2CCC(C(=O)NCCc3ccccc3)CC2)CC1 (stereo not given) | -4.8%
5 | CCOc1cc2c(cc1OCC)C(c1cc(OC)c(O)cc1Cl)NCC2 (stereo not given) | 23.3%
6 | Cn1c(=O)n(C)c2cc(CNCCNc3ccnc4cc(Cl)ccc34)ccc21 | 11.4%
7 | CCCCc1c(C)nc2c(OC)cccc2c1O | 26.3%
8 | Cc1cc(N2CCN(C3CCCC3)CC2)n2c(nc3ccccc32)c1C#N | 7.81%
9 | COc1ccccc1CNC(=O)C1c2ccccc2C(=O)N(CC(C)C)C1c1cccs1 (stereo not given) | 15.7%
10 | O=C(Nc1ccc(N2CCN(Cc3ccccc3)CC2)cc1)c1cccs1 | 11%
11 | OC(Cn1nnc2ccccc21)Cn1c2ccc(Br)cc2c2cc(Br)ccc21 (stereo not given) | 4.62%
12 | COc1ccc(C(=O)Nc2ccc3nc(N4CCCCC4)cc(C)c3c2)cc1OC | 21.3%
13 | CCOC(=O)c1c[nH]c2c(CC)cccc2c1=O | 4.62%
14 | CC(C)(C)c1ccc(C2CC3=Nc4ccccc4N(C(=O)c4ccccc4Cl)C(c4ccc(F)cc4)C3=C(O)C2)cc1 (stereo not given) | 1.49%
15 | O=C(CSc1ccc2nnc(-c3cccc(F)c3)n2n1)Nc1ccc2c(c1)OCO2 | 5.98%
16 | COc1ccc(C(=O)Nc2nonc2-c2ccc(OC)c(OC)c2)cc1Cl | 3.86%
17 | CCN(CC)CCNc1ncnc2c1[nH]c1ccc(Cl)cc12 | 15.4%
18 | CC(NCc1ccccc1)c1cc(Cl)ccc1O (stereo not given) | 21.2%
19 | COc1ccc(N2CCN(C(CNC(=O)C3CCCCC3)c3ccc4c(c3)OCO4)CC2)cc1 (stereo not given) | -3.89%
20 | COc1ccc2sc(N(Cc3cccnc3)C(=O)c3ccc(C#N)cc3)nc2c1 | 15%

Row | SMILES | inhibition at 25 µM
21 | O=C(Nc1cccc(C2=NCCN2)c1)Nc1cccc(C2=NCCN2)c1 [IMIDOCARB] | 5.56%
22 | CCCN(CCC)CCCNC(=O)c1cc2c(-c3ccc(OC)c(OC)c3)nn(C)c2s1 | 5.83%
23 | CCCC(c1nnnn1C1CCCCC1)N1CCN(C(=O)c2ccco2)CC1 (stereo not given) | 20.4%
24 | CC1(c2ccccc2)Nc2ccccc2-c2nc3ccccc3n21 (stereo not given) | 8.87%
25 | COc1ccc(-c2cc3c(SCC(=O)Nc4cc(C(F)(F)F)ccc4Cl)nccn3n2)cc1 | 10.2%
26 | COC(=O)c1ccc(C2C3=C(O)CC(c4ccc(F)cc4)CC3=Nc3ccccc3N2C(=O)c2ccccc2)cc1 (stereo not given) | 28.3%
27 | Cn1c(=O)c2cc(C(=O)NCCCN3CCCCCC3)sc2c2ccccc21 | 19.5%
28 | OC(CNCC1CCCO1)Cn1c2ccc(Cl)cc2c2cc(Cl)ccc21 (stereo not given) | 1.28%
29 | COc1cccc(-c2nn(C)c3sc(C(=O)NCCN4CCN(c5ccccc5F)CC4)cc23)c1 | 29.5%
30 | CCn1c(CN2CCN(Cc3ccccc3)CC2)nc2cc(NC(=O)c3cccs3)ccc21 | 12.5%
31 | COc1ccccc1CNC(=O)CCn1c(=O)[nH]c2ccccc2c1=O | 6.74%
32 | OC1=C2C(=Nc3ccccc3SC2c2ccccc2)c2ccccc21 (stereo not given) | 8.39%
33 | Clc1ccc2[nH]c3c(NCCCN4CCOCC4)ncnc3c2c1 | 16.2%
34 | CC1CCN(Cc2c(O)ccc3cc(-c4nc5ccccc5s4)c(=O)oc23)CC1 | 8.23%
35 | C=CCc1c(C)nc2ccccc2c1O | 15.2%
36 | CCOC(=O)c1cnc2c(C)cccc2c1Nc1ccc(C(C)=O)cc1 | 0.392%
37 | Oc1ccc(Br)cc1CN1CCN(Cc2ccc(Cl)cc2)CC1 | 19.7%
38 | CC(C)(C)C(=O)Nc1ccc(C(=O)Nc2cccc(-c3nc4ccccc4[nH]3)c2)cc1 | 10.8%
39 | Oc1ccccc1CNCC12CC3CC(CC(C3)C1)C2 | 49.7%
40 | O=C(Nc1ccc(N2CCCCC2)c(Cl)c1)c1ccc(Br)o1 | 18.9%

Test system: Mycobacterium tuberculosis
Assay: MMV: Screen against Mtb, single point, non replicating, at 25uM
Type: functional

Row | SMILES | inhibition at 25 µM
41 | CC(C)(C)c1ccc(C(=O)Nc2c3c(nn2-c2cccc(Cl)c2)CSC3)cc1 | -4.72%
42 | CC(C)(C)c1ccc(C(=O)Nc2nc3ccccc3s2)cc1 | -0.011%
43 | CCN(CC)CCNc1ccnc2cc(Cl)ccc12 | 18.3%
44 | C=C(C)CCC(C)N1CCC(N2CCC(C(=O)NCCc3ccccc3)CC2)CC1 (stereo not given) | 15.2%
45 | CCOc1cc2c(cc1OCC)C(c1cc(OC)c(O)cc1Cl)NCC2 (stereo not given) | 13.6%
46 | Cn1c(=O)n(C)c2cc(CNCCNc3ccnc4cc(Cl)ccc34)ccc21 | 8.95%
47 | CCCCc1c(C)nc2c(OC)cccc2c1O | 6.62%
48 | Cc1cc(N2CCN(C3CCCC3)CC2)n2c(nc3ccccc32)c1C#N | 11.5%
49 | COc1ccccc1CNC(=O)C1c2ccccc2C(=O)N(CC(C)C)C1c1cccs1 (stereo not given) | 9.76%
50 | O=C(Nc1ccc(N2CCN(Cc3ccccc3)CC2)cc1)c1cccs1 | 6.45%
51 | OC(Cn1nnc2ccccc21)Cn1c2ccc(Br)cc2c2cc(Br)ccc21 (stereo not given) | -5.78%
52 | COc1ccc(C(=O)Nc2ccc3nc(N4CCCCC4)cc(C)c3c2)cc1OC | 23.7%
53 | CCOC(=O)c1c[nH]c2c(CC)cccc2c1=O | 11.1%
54 | CC(C)(C)c1ccc(C2CC3=Nc4ccccc4N(C(=O)c4ccccc4Cl)C(c4ccc(F)cc4)C3=C(O)C2)cc1 (stereo not given) | 14.4%
55 | O=C(CSc1ccc2nnc(-c3cccc(F)c3)n2n1)Nc1ccc2c(c1)OCO2 | 19.2%
56 | COc1ccc(C(=O)Nc2nonc2-c2ccc(OC)c(OC)c2)cc1Cl | 5.57%
57 | CCN(CC)CCNc1ncnc2c1[nH]c1ccc(Cl)cc12 | 18.1%
58 | CC(NCc1ccccc1)c1cc(Cl)ccc1O (stereo not given) | 14.8%
59 | COc1ccc(N2CCN(C(CNC(=O)C3CCCCC3)c3ccc4c(c3)OCO4)CC2)cc1 (stereo not given) | 0.862%
60 | COc1ccc2sc(N(Cc3cccnc3)C(=O)c3ccc(C#N)cc3)nc2c1 | 5.22%

Row | SMILES | inhibition at 25 µM
61 | O=C(Nc1cccc(C2=NCCN2)c1)Nc1cccc(C2=NCCN2)c1 [IMIDOCARB] | 11.1%
62 | CCCN(CCC)CCCNC(=O)c1cc2c(-c3ccc(OC)c(OC)c3)nn(C)c2s1 | -0.011%
63 | CCCC(c1nnnn1C1CCCCC1)N1CCN(C(=O)c2ccco2)CC1 (stereo not given) | 5.57%
64 | CC1(c2ccccc2)Nc2ccccc2-c2nc3ccccc3n21 (stereo not given) | 12%
65 | COc1ccc(-c2cc3c(SCC(=O)Nc4cc(C(F)(F)F)ccc4Cl)nccn3n2)cc1 | 15%
66 | COC(=O)c1ccc(C2C3=C(O)CC(c4ccc(F)cc4)CC3=Nc3ccccc3N2C(=O)c2ccccc2)cc1 (stereo not given) | 18.9%
67 | Cn1c(=O)c2cc(C(=O)NCCCN3CCCCCC3)sc2c2ccccc21 | 14.6%
68 | OC(CNCC1CCCO1)Cn1c2ccc(Cl)cc2c2cc(Cl)ccc21 (stereo not given) | 20.4%
69 | COc1cccc(-c2nn(C)c3sc(C(=O)NCCN4CCN(c5ccccc5F)CC4)cc23)c1 | 14.8%
70 | CCn1c(CN2CCN(Cc3ccccc3)CC2)nc2cc(NC(=O)c3cccs3)ccc21 | 15.2%
71 | COc1ccccc1CNC(=O)CCn1c(=O)[nH]c2ccccc2c1=O | 11.2%
72 | OC1=C2C(=Nc3ccccc3SC2c2ccccc2)c2ccccc21 (stereo not given) | 14.1%
73 | Clc1ccc2[nH]c3c(NCCCN4CCOCC4)ncnc3c2c1 | 21.6%
74 | CC1CCN(Cc2c(O)ccc3cc(-c4nc5ccccc5s4)c(=O)oc23)CC1 | 12%
75 | C=CCc1c(C)nc2ccccc2c1O | 1.56%
76 | CCOC(=O)c1cnc2c(C)cccc2c1Nc1ccc(C(C)=O)cc1 | 8.24%
77 | Oc1ccc(Br)cc1CN1CCN(Cc2ccc(Cl)cc2)CC1 | 17.6%
78 | CC(C)(C)C(=O)Nc1ccc(C(=O)Nc2cccc(-c3nc4ccccc4[nH]3)c2)cc1 | 8.19%
79 | Oc1ccccc1CNCC12CC3CC(CC(C3)C1)C2 | 18.7%
80 | O=C(Nc1ccc(N2CCCCC2)c(Cl)c1)c1ccc(Br)o1 | 11.9%
